Source: ChEMBL document CHEMBL5120781, “α-Glucosidase Inhibitors from the Stems of Knema globularia” (J Nat Prod, 2022)
pIC50, pKi: −log10 of the molar value. Calls of active or inactive are those of the source. The rule behind the calls is not given here.

biological target: not listed separately; assay: Inhibition of yeast alpha-glucosidase using p-nitrophenyl-alpha-D-glucopyranoside as substrate preincubated with enzyme for 10 mins followed by substrate addition measured after 20 mins by spectrophotometric method; design: species or system Saccharomyces cerevisiae

Compound	pIC50
COc1ccc(-c2coc3cc4c(c(OC)c3c2=O)OCO4)cc1	< 3.70
O=C(/C=C/c1ccc2oc(-c3ccc(O)cc3)c(C(=O)c3ccc(O)cc3O)c2c1)c1ccc(O)cc1O	5.49
O=C(/C=C/c1ccc(O)c([C@@H]2C(=O)c3c(O)cc(O)cc3O[C@H]2c2ccc(O)cc2)c1)c1ccc(O)cc1O	5.60
COc1ccc(-c2coc3cc4c(c(OC)c3c2=O)OCO4)cc1OC	3.75
O=C(C[C@@H]1C(=O)c2ccc(O)cc2O[C@H]1c1ccc(O)cc1)c1ccc(O)cc1O	4.58
CCCCCCCCCCCC1=C(O)C(=O)C=C(O)C1=O [EMBELIN]	5.62
C[C@H]1O[C@H](O[C@H]2[C@H](O)[C@@H](O)[C@@H](O[C@H]3[C@H](O)[C@@H](O)C(O)O[C@@H]3CO)O[C@@H]2CO)[C@H](O)[C@@H](O)[C@@H]1N[C@H]1C=C(CO)[C@@H](O)[C@H](O)[C@H]1O (stereo partly drawn) [ACARBOSE]	4.03
COc1ccc(C(=O)[C@@H](c2coc3cc(O)ccc3c2=O)C(c2ccc(O)cc2)c2ccc(O)cc2)c(O)c1	5.21
O=C(/C=C/c1ccc2c(c1)[C@@H](C(=O)c1ccc(O)cc1O)[C@H](c1ccc(O)cc1)O2)c1ccc(O)cc1O	5.25

Stronger by pIC50, values ahead:

pIC50	Compound
5.64	O=C(/C=C/c1ccc2c(c1)[C@H](C(=O)c1ccc(O)cc1O)[C@@H](c1ccc(O)cc1)O2)c1ccc(O)cc1O
5.70	CCCCCCCCCCCC1=C(O)C(=O)C2=C(Oc3cc(O)c4c(c3C2(C)C)O[C@@H](c2ccc(O)c(O)c2)[C@H](O)C4)C1=O
5.74	CCCCCCCCCCCCCC1=C(O)C(=O)C=C(O)C1=O [Rapanone]
5.80	CCCCCCCCCCCCCC1=C(O)C(=O)C2=C(Oc3cc(O)c4c(c3C2(C)C)O[C@@H](c2ccc(O)c(O)c2)[C@H](O)C4)C1=O
5.85	CCCCCCCCCCCCCCCC1=C(O)C(=O)C2=C(Oc3cc(O)c4c(c3C2(C)C)O[C@@H](c2ccc(O)c(O)c2)[C@H](O)C4)C1=O
5.89	O=C(/C=C/c1ccc(O)cc1)c1c(O)cc(O)c2c(C(=O)c3ccc(O)cc3O)c(-c3ccc(O)cc3)oc12
6.40	O=C(CCc1ccc(O)cc1)c1c(O)cc(O)c2c(C(=O)c3ccc(O)cc3O)c(-c3ccc(O)cc3)oc12

tested on: Saccharomyces cerevisiae; assay: Non-competitive inhibition of yeast alpha-glucosidase assessed as decrease in Vmax with constant Km using p-nitrophenyl-alpha-D-glucopyranoside as substrate by Lineweaver-Burk double reciprocal plot analysis

inhibition	Compound
Active	O=C(CCc1ccc(O)cc1)c1c(O)cc(O)c2c(C(=O)c3ccc(O)cc3O)c(-c3ccc(O)cc3)oc12

biological target: not listed separately; assay: Non-competitive inhibition of yeast alpha-glucosidase using p-nitrophenyl-alpha-D-glucopyranoside as substrate by Lineweaver-Burk double reciprocal plot analysis; design: species or system Saccharomyces cerevisiae

pKi	Compound
5.47	O=C(CCc1ccc(O)cc1)c1c(O)cc(O)c2c(C(=O)c3ccc(O)cc3O)c(-c3ccc(O)cc3)oc12
